Laboratory results reported in ChEMBL document CHEMBL1201862, “PubChem BioAssay data set” (2004).
Where a name gives a salt, the structure may show the parent alone. Activity calls are given as the source filed them.

Legend:
[1] = viability of uninfected HEp-2 cells – cell-based, HTS, cytotoxicity control for RSV inhibitor project, dose response (AID 2410); format: functional; settings: human respiratory syncytial virus
[2] = biological target: NADPH oxidase 1 (Homo sapiens, UniProt Q9Y5S8); assay: Late-stage luminescence-based cell-based dose response assay to identify inhibitors of NADPH oxidase 1 (NOX1): Synthesized analogs.; format: functional
NADPH oxidase 1, sequence (Q9Y5S8 whole entry): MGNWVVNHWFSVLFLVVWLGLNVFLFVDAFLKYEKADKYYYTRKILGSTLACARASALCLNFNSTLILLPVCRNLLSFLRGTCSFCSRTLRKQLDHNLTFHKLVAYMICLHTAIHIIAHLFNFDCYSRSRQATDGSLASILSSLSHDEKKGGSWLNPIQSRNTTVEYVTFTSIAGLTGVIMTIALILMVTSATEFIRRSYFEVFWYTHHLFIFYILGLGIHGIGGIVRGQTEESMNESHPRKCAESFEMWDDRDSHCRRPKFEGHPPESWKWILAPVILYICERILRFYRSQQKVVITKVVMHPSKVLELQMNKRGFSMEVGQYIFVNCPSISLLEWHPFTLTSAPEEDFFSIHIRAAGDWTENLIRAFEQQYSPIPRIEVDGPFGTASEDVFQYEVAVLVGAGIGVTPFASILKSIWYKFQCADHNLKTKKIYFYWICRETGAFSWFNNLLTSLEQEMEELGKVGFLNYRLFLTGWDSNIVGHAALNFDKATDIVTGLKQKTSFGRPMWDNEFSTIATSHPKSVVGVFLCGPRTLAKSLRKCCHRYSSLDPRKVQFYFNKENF

[3] = tested on: INS1; assay: INS-1E survival protection against cytokine death – cell-based, luminescence, retest, dose response (AID 449756); format: functional; settings: Rattus norvegicus;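 also: cell death triggered by IL-1 beta plus TNF-alpha plus IFN-gamma mixture; protective hits raise ATP signal compared with cytokine alone wells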
[4] = biological target: T1, Protein skinhead-1 (Caenorhabditis elegans, UniProt P34707); format: functional
T1 sequence (P34707 whole entry): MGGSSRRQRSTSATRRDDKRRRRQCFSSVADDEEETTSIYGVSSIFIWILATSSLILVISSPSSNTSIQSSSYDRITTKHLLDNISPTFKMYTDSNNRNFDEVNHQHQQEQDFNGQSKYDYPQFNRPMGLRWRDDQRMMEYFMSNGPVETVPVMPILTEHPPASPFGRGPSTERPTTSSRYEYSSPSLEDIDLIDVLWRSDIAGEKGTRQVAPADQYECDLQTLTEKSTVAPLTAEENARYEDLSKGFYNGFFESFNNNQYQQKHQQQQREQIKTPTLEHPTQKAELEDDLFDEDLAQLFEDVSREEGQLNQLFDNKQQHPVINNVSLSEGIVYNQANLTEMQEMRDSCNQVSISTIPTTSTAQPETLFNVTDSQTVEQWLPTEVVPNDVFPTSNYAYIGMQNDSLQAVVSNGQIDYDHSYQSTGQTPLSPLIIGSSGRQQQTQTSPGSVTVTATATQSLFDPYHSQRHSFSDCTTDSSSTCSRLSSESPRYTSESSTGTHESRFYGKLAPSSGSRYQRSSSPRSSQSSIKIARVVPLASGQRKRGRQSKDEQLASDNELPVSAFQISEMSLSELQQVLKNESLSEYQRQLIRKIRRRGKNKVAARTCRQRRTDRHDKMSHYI

[5] = viability loss in Vero cells – cytotoxicity control for Vif-APOBEC3G degradation inhibitor project, dose response (AID 1117358); format: functional; settings: Vero
[6] = biological target: T2, Sentrin-specific protease 8 (Homo sapiens, UniProt Q96LD8); format: functional
T2 sequence (Q96LD8 whole entry): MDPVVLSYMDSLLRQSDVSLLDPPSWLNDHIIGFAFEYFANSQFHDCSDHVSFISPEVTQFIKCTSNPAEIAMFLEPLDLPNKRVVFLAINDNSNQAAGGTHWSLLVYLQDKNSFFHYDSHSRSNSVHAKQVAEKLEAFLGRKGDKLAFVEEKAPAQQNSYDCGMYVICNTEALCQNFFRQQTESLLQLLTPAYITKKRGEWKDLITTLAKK

[7] = biological target: T3, Histone-lysine N-methyltransferase NSD2 (Homo sapiens, UniProt O96028); format: biochemical
T3 sequence (O96028 whole entry): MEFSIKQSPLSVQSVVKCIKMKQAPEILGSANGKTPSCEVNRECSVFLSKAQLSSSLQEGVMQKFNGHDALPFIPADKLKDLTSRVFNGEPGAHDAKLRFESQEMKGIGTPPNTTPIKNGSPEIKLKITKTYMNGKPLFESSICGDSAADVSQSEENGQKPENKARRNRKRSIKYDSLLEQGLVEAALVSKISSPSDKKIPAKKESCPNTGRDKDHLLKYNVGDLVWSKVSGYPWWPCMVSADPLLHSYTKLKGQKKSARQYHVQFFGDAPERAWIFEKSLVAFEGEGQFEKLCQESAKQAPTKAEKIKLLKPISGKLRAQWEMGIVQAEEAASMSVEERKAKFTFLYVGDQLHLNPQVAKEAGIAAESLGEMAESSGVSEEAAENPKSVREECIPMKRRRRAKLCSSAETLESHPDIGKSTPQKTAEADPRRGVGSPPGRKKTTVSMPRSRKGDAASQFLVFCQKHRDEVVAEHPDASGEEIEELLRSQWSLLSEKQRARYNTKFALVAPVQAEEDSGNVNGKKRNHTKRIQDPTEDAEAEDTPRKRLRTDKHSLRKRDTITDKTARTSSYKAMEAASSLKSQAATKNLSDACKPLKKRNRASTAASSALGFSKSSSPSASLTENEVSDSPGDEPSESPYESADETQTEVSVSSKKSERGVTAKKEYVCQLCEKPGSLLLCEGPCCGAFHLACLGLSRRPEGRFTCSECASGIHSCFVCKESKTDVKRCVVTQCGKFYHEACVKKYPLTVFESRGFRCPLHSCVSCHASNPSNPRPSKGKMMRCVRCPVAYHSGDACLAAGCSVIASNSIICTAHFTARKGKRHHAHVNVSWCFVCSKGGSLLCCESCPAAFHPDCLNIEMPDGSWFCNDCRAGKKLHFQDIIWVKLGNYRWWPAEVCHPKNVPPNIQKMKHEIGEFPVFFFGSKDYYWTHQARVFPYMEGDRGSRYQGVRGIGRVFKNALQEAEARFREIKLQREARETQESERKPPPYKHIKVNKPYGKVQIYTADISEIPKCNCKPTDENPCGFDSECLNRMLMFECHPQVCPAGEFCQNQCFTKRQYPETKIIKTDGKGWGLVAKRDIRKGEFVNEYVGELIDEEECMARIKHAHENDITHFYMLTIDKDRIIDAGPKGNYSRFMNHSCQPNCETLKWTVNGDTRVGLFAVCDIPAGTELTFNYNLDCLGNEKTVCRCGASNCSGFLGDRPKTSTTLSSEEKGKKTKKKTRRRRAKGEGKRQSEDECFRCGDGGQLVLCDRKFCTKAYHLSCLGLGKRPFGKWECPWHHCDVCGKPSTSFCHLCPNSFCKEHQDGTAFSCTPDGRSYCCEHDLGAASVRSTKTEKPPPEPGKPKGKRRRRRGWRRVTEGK

[8] = biological target: T2, Sentrin-specific protease 8; format: functional; remark: listed apart in the source
[9] = biological target: Glutathione-S-transferase (Schistosoma japonicum, UniProt Q26513); assay: GST-antibody interaction or FRET quenching – biochemical, TR-FRET, artefact control for Vif-APOBEC3G degradation inhibitor project, dose response (AID 1117362); format: functional
Glutathione-S-transferase, sequence (Q26513 whole entry): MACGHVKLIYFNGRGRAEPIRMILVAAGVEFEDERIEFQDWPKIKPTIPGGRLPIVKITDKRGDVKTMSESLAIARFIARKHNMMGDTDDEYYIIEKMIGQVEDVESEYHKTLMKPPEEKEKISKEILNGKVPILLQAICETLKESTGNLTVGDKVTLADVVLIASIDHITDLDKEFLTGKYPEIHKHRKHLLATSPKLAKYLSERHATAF

[10] = biological target: T4, Tyrosyl-DNA phosphodiesterase 2 (Homo sapiens, UniProt O95551); assay: potency against TDP2 phosphodiesterase activity – biochemical, epi absorbance, IC50, dose response (AID 743297)
T4 sequence (O95551 whole entry): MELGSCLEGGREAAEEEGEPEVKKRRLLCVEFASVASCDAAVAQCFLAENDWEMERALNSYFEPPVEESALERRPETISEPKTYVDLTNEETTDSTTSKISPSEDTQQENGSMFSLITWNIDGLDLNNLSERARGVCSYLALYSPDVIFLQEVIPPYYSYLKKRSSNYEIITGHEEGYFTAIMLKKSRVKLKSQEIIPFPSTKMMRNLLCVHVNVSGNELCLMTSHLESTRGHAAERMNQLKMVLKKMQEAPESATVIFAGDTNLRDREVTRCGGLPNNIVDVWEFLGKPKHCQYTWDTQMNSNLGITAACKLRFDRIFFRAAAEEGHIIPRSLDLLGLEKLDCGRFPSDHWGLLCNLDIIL

[11] = biological target: T5, Ubiquitin-conjugating enzyme E2 N (Homo sapiens, UniProt P61088); format: functional
T5 sequence (P61088 whole entry): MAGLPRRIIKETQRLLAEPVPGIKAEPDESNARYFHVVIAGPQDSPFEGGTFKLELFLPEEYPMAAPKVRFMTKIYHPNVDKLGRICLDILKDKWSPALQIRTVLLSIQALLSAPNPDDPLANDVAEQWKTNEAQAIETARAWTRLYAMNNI

[12] = biological target: T5, Ubiquitin-conjugating enzyme E2 N; format: functional; remark: listed apart in the source
[13] = biological target: Sphingosine 1-phosphate receptor 2 (Homo sapiens, UniProt O95136); assay: Dose Response Cell Based Assay for Agonists of the S1P2 Receptor. [Related pubchem assays: 729, 736, 843 ]; format: functional
Sphingosine 1-phosphate receptor 2, sequence (O95136 whole entry): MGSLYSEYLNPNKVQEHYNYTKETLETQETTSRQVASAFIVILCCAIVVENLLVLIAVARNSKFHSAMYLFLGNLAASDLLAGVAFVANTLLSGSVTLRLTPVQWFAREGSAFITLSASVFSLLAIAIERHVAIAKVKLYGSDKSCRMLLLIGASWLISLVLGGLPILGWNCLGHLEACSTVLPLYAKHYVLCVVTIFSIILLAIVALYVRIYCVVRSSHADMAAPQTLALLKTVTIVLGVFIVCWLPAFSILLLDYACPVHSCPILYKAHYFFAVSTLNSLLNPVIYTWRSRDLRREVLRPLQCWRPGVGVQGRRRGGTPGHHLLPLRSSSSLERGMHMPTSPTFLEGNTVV

[14] = biological target: T6, Bcl-2-related protein A1 (Mus musculus, UniProt Q07440); format: functional;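 also: confirmatory dose–response counterscreen on Bfl-1, used to check hits from a UBC13 polyubiquitin inhibitor campaign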
T6 sequence (Q07440 whole entry): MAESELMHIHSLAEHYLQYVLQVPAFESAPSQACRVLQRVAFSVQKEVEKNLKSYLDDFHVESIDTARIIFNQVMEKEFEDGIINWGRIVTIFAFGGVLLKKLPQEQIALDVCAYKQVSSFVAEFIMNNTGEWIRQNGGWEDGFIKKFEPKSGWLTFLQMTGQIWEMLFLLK

[15] = cytotoxicity toward HCT116 cells – cell-based, CellTiter-Glo luminescence, IC50, dose response (AID 1117332); format: functional; settings: HCT-116
[16] = rise of 2N DNA cells, HeLa – IC50, dose response (AID 1117349); format: functional, cell-based
[17] = CellTiter-Glo luminescence survival assay, SW480 colon tumor line, concentration-response curve, half-maximal inhibitory concentration (AID 1117338); format: functional
[18] = RKO cell viability reduction, dose response, CellTiter-Glo luminescence (AID 1117322); format: functional
[19] = rise of 4N DNA cells, HeLa – IC50, dose response (AID 1117351); format: functional, cell-based
[20] = Reduced DLD-1 viability, concentration-response, CellTiter-Glo luminescence (AID 1117352); format: functional
[21] = HCT116 cell viability decrease, GSK3B pretreatment – CellTiter-Glo, IC50, dose response (AID 1117339); format: functional; settings: HCT-116
[22] = cytotoxicity toward Colo320 cells – cell-based, CellTiter-Glo luminescence, IC50, dose response (AID 1117334); format: functional; settings: COLO 320
[23] = cytotoxicity toward HT-29 cells – cell-based, CellTiter-Glo luminescence, IC50, dose response (AID 1117330); format: functional
[24] = SNU-C1 cell viability reduction, dose response, CellTiter-Glo luminescence (AID 1117323); format: functional, cell-based
[25] = lung carcinoma cell viability loss – CellTiter-Glo luminescence, dry powder, set 17, dose response (AID 1117284); format: functional, cell-based; settings: A549
[26] = cell lysis of Cryptococcus neoformans, alamar blue – dry powder, set 3, mechanism study for C. neoformans antifungal project, dose response (AID 743298); format: functional, organism-based
[27] = IC50 of insulin release inhibition, rat insulinoma INS-1E line, 5 mM glucose, cell-based (AID 1117331); format: functional

Question: Which CC50 [1] does the source give for `Cc1ccc2c(c1)Sc1c(ccc3ccccc13)N2` here?
Answer: Its CC50 is 47.8 µM (active).

Question: And the IC50 [2]?
Answer: The IC50 was 1.47 µM (active).

Question: And the AC50 [3]?
Answer: Its AC50 is > 260 µM (inactive).

Question: Which IC50 [4] does the source give for `CSc1ccc(C2Nc3ccccc3-c3cc(C)nn32)cc1` (configuration not stated) here?
Answer: The IC50 was > 100 µM (inactive).

Question: And the CC50 [5]?
Answer: Its CC50 is > 40 µM (active).

Question: What does the source list for `C[n+]1cccc2cccc([O-])c21`?
Answer: IC50 [6]: 1.01 µM (active); AC50 [7]: 15.1 µM (active); IC50 [8]: 1.82 µM (active); IC50 [9]: 42.6 µM (active); IC50 [10]: 60 µM (inactive)

Question: With `CCC(=O)c1cc2c(C)cc(=O)oc2c(C)c1O` as the compound, how does the IC50 [11] read?
Answer: The IC50 was 10.5 µM (active).

Question: What about the IC50 [12] of the same compound?
Answer: Its IC50 is > 20 µM (inactive).

Question: And the EC50 [13]?
Answer: Its EC50 is > 50 µM (not active).

Question: What about the IC50 [14] of the same compound?
Answer: Its IC50 is > 20 µM (inactive).

Question: For `NC(N)=NN=C(/C=C/c1ccc([N+](=O)[O-])o1)/C=C/c1ccc([N+](=O)[O-])o1`, which IC50 [15] is on record?
Answer: Its IC50 is 0.136 µM (active).

Question: And the IC50 [16]?
Answer: Its IC50 is > 10 µM (inactive).

Question: What about the IC50 [17] of the same compound?
Answer: Its IC50 is 0.0076 µM (active).

Question: And the IC50 [18]?
Answer: Its IC50 is 0.0128 µM (active).

Question: And the IC50 [19]?
Answer: Its IC50 is > 10 µM (inactive).

Question: What about the IC50 [20] of the same compound?
Answer: Its IC50 is > 20 µM (inactive).

Question: What about the IC50 [21] of the same compound?
Answer: The IC50 was 0.0237 µM (active).

Question: What about the IC50 [22] of the same compound?
Answer: Its IC50 is 0.003 µM (active).

Question: What about the IC50 [23] of the same compound?
Answer: Its IC50 is 0.003 µM (active).

Question: And the IC50 [24]?
Answer: Its IC50 is 1.35 µM (active).

Question: For `COc1ccc(-c2ccc(CN(C)C[C@@H]3Oc4cc(C#C[C@@H](C)O)ccc4S(=O)(=O)N([C@@H](C)CO)C[C@@H]3C)cc2)cc1`, which AC50 [25] is on record?
Answer: Its AC50 is 29.8 µM (active).

Question: With `Fc1ccc(OCCn2c(=S)[nH]c3ccccc32)cc1` as the compound, how does the AC50 [26] read?
Answer: Its AC50 is 55.4 µM (active).

Question: With `CN(C)CCN1C(=O)c2ccccc2N(C)c2ccccc21` [DIBENZEPIN HYDROCHLORIDE] as the compound, how does the IC50 [27] read?
Answer: The IC50 was > 33.3 µM (inactive).
